Read-outs that look alike come from different tables or passages of the source.
Key:
[1] = system: HIV-1 infection of TZM-bl cells; assay: HIV-1 infectivity enhancement assay, β-galactosidase luminescence; assay type: cell-based; conditions: for Rel-EFC: infection relative to EF-C (QCKIKQIINMWQ = 1); for Log10 Infection Rel EFC: log10 of infection relative to EF-C; for Log Infectivity: Log10 infection relative to EF-C, TZM-bl cells; for Log10 Infection Rel EF-C: HIV-1 infection of TZM-bl cells; for Abs. Inf.: absolute infection signal, HIV-1 on TZM-bl cells, β-galactosidase luminescence; for Rel-to EFC (Feb-2021): n-fold infectivity relative to EF-C
[2] = assay type: physicochemical; conditions: for ThT Cat. / ThT-Fluorescence (categorical): ThT-active if fluorescence at least twice the control
How it was run: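 Fibrils (1 mg/mL solution) were mixed with 50 µM ThT in PBS for 15 min at RT, and fluorescence was read at λex 440/λem 488 nm against a PBS blank, as a triplicate mean ± SD. Zeta potential came from electrophoretic mobility (Smoluchowski) after 1 d aggregation at 1 mg/mL in PBS pH 7.4, diluted into 1 mM KCl.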

[3] = Turbidity, derived count rate of scattered light; assay type: physicochemical; conditions: for Count Rate: derived count rate of scattered light (turbidity); for Log10 Count Rate: turbidity, derived count rate of scattered light, data of Figure 2D
[4] = Fig. S7 panel A (plotted against β-sheet content), asymmetric std dev errors
[5] = Fig. S7 panel B (plotted against CR), rounded to two decimals, asymmetric std dev errors
[6] = Log10 of infection rate relative to EF-C, Figure 3A source data
[7] = infection rate relative to EF-C, log10, data of Figure 2D
[8] = infection rate relative to EF-C, log10, source data of Figure 2C
[9] = Log10 of infection relative to EF-C, all peptides of FigS16
[10] = log10 of HIV-1 infection of TZM-bl cells relative to EF-C (EF-C = 0)

| Substance | Rel-EFC ([1]; 1.3 µM peptide) | Log10 Infection Rel EFC ([1]; 1.3 µM peptide) | Log Infectivity [1, 4] | Log Infectivity [1, 5] | Log10 Infection Rel EF-C [1, 6] | Log10 Infection Rel EF-C [1, 7] | Log10 Infection Rel EF-C [1, 8] | Log10 of Rel to EFC (Feb2021) [1, 9] | Abs. Inf. [1] | Log10 Inf. rel. to EF-C [1, 10] | Tht category (> 2 to blank = +) ([2]; Fig S10 panel D) | ThT Cat. ([2]; Fig S10 panel E) | ThT Cat, ([2]; ThT category, 1 if Rel. ThT >2) | ThT Cat. ([2]; ThT category, 1 if Rel. ThT >2) | ThT Cat. / ThT-Fluorescence (categorical) [2] | Count Rate [3] | Log10 Count Rate [3] | Tht category (> 2 to blank = +) ([2]; FigS12 panel A) | ThT Cat, ([2]; FigS12 panel B) | also measured |
| --- | --- | --- | --- | --- | --- | --- | --- | --- | --- | --- | --- | --- | --- | --- | --- | --- | --- | --- | --- | --- |
| QCKIKIQINMWQ | 1,04 | 0,02 | 0.01546 | 0.02 | 0.02 | 0.01546 | 0.01546 | 0.02 | 21221.11111 | 0.01546 | 1 (ThT. Cat is 1, if Rel. ThT >2) | 1 (ThT. Cat is 1, if Rel. ThT >2) | 1 (ThT. Cat is 1, if Rel. ThT >2) | 1 (ThT. Cat is 1, if Rel. ThT >2) | 1 (ThT. Cat is 1, if Rel. ThT >2) | 8271 | 3.918 |  |  |  |
| QCKIKQII | 0,01 | -2,19 | -2.189 |  | -2.19 | -2.189 | -2.189 |  | 206.7 | -2.189 | 1 (ThT. Cat is 1, if Rel. ThT >2) |  | 1 (ThT. Cat is 1, if Rel. ThT >2) | 1 (ThT. Cat is 1, if Rel. ThT >2) | 1 (ThT. Cat is 1, if Rel. ThT >2) | 301 | 2.479 | 1 (ThT. Cat is 1, if Rel. ThT >2) | 1 (ThT. Cat is 1, if Rel. ThT >2) |  |
| QCKIKQIINM | 0,35 | -0,46 | -0.4555 |  | -0.46 | -0.4555 | -0.4555 | -0.46 | 11186.66667 | -0.4555 | 1 (ThT. Cat is 1, if Rel. ThT >2) |  | 1 (ThT. Cat is 1, if Rel. ThT >2) | 1 (ThT. Cat is 1, if Rel. ThT >2) | 1 (ThT. Cat is 1, if Rel. ThT >2) | 20551.06667 | 4.313 |  |  |  |
| QCKIKQIINMWQ [reference compound] | 1 | 0 | 0 | 0 | 0 | 0 | 0 | 0 | 21312.22222 | 0 | 1 (ThT. Cat is 1, if Rel. ThT >2) | 1 (ThT. Cat is 1, if Rel. ThT >2) | 1 (ThT. Cat is 1, if Rel. ThT >2) | 1 (ThT. Cat is 1, if Rel. ThT >2) | 1 (ThT. Cat is 1, if Rel. ThT >2) | 2602 | 3.415 |  |  | n-fold infectivity enhancement compared to virus-only infectivity ([1]; 1.3 µM peptide, listed as EF-C): 42 ± 7; Absolute Infectivity / RLU /s (Feb2021) ([1]; Feb2021, figures match the 1.3 µM column): 21312.22222 RLU /s; n-fold to virus (Feb2021) ([1]; Feb2021, infectivity relative to virus only): 42.02; Rel-to EFC (Feb-2021) ([1]; Feb2021): 1; n-fold to virus (Feb2021) ([1]; Feb2021 run, infectivity n-fold relative to virus alone): 42.02; Log10 of Rel to EFC (Feb2021) ([1]; Feb2021 run, log10 of infectivity relative to EF-C): 0; Rel-to EFC (Feb-2021) ([1]; Feb2021 run): 1; Rel-to EFC ([1]; Fig S8 panels B, D, infectivity enhancement relative to EF-C): 1; n-fold to virus ([1]; Fig S8 panels B, D, infectivity n-fold relative to virus alone): 42.02; infectivity ([1]; infectivity class (low / medium / high) of the peptide in the sequence-pattern analysis, Fig. S22-A4, class limits not given): high; Log10 Inf. rel. to EF-C ([1]; log10 of HIV-1 infection of TZM-bl cells relative to EF-C, Fig S15 source data, asymmetric std dev errors): 0; Abs Infection at 0.26µM ([1]; peptide 0.26 µM, mean of n = 3, Figure 7A): 39053.33333; Abs Infection at 1.3 µM ([1]; peptide 1.3 µM, mean of n = 3, Figure 7A): 101036.6667; Abs Infection at 6.5 µM ([1]; peptide 6.5 µM, mean of n = 3, Figure 7A): 141063.3333; Tht rel to blank (42.1851851851852) ([2]; ThT fluorescence relative to blank (42.1851851851852 a.u.)): 3.802; Tht rel to blank (42.1851851851852) ([2]; ThT fluorescence relative to blank, blank = 42.1851851851852): 3.802; Tht category (> 1.5 to blank = +) ([2]; category 1/0): 1 (ThT. Cat is 1, if Rel. ThT >2); Tht rel to blank (42.1851851851852) ([2]; relative to blank 42.1851851851852 a.u.): 3.802 |
| RGDKIRGDKI | 0,01 | -2,13 | -2.126 | -2.13 | -2.13 | -2.126 | -2.126 |  | 163.3 | -2.126 | 0 (ThT-inactive (N-Fold <2)) | 0 (ThT-inactive (N-Fold <2)) | 0 (ThT-inactive (N-Fold <2)) | 0 (ThT-inactive (N-Fold <2)) | 0 (ThT-inactive (N-Fold <2)) | 285.8 | 2.456 | 0 (ThT-inactive (N-Fold <2)) | 0 (ThT-inactive (N-Fold <2)) |  |
| RGECKFKFQF | 0,33 | -0,48 | -0.4776 | -0.48 | -0.48 | -0.4776 | -0.4776 | -0.48 | 7411 | -0.4776 | 1 (ThT. Cat is 1, if Rel. ThT >2) | 1 (ThT. Cat is 1, if Rel. ThT >2) | 1 (ThT. Cat is 1, if Rel. ThT >2) | 1 (ThT. Cat is 1, if Rel. ThT >2) | 1 (ThT. Cat is 1, if Rel. ThT >2) | 219.3 | 2.341 |  |  |  |
| RGEKIKIQINM | 0,24 | -0,61 | -0.6134 | -0.61 | -0.61 | -0.6134 | -0.6134 | -0.61 | 7838 | -0.6134 | 1 (ThT. Cat is 1, if Rel. ThT >2) | 1 (ThT. Cat is 1, if Rel. ThT >2) | 1 (ThT. Cat is 1, if Rel. ThT >2) | 1 (ThT. Cat is 1, if Rel. ThT >2) | 1 (ThT. Cat is 1, if Rel. ThT >2) | 594.6 | 2.774 |  |  |  |
| RLRLTLC | 0,05 | -1,29 | -1.288 | -1.29 | -1.29 | -1.288 | -1.288 |  | 1334 | -1.288 | 0 (ThT-inactive (N-Fold <2)) | 0 (ThT-inactive (N-Fold <2)) | 0 (ThT-inactive (N-Fold <2)) | 0 (ThT-inactive (N-Fold <2)) | 0 (ThT-inactive (N-Fold <2)) | 125.6 | 2.0991 | 0 (ThT-inactive (N-Fold <2)) | 0 (ThT-inactive (N-Fold <2)) |  |
| RPRGLLLGNLR | 0,05 | -1,32 | -1.3163 |  | -1.32 | -1.3163 | -1.3163 |  | 716.7 | -1.3163 | 0 (ThT-inactive (N-Fold <2)) |  | 0 (ThT-inactive (N-Fold <2)) | 0 (ThT-inactive (N-Fold <2)) | 0 (ThT-inactive (N-Fold <2)) | 210.1 | 2.322 | 0 (ThT-inactive (N-Fold <2)) | 0 (ThT-inactive (N-Fold <2)) |  |
| SISISRRI | 0,03 | -1,55 | -1.548 | -1.55 | -1.55 | -1.548 | -1.548 |  | 313.3 | -1.548 | 0 (ThT-inactive (N-Fold <2)) | 0 (ThT-inactive (N-Fold <2)) | 0 (ThT-inactive (N-Fold <2)) | 0 (ThT-inactive (N-Fold <2)) | 0 (ThT-inactive (N-Fold <2)) | 25.27 | 1.403 | 0 (ThT-inactive (N-Fold <2)) | 0 (ThT-inactive (N-Fold <2)) |  |
